Assay results taken from US11753386B2, “Processes for preparing a MDM2 inhibitor” (Amgen, Inc., priority 2018, dated 2023).
Each block holds one compound with its values, some of them ahead of it.

Assays:
Assay type in all cases: physicochemical
[1] = Supernatant concentration at end of crystallization; details: 20° C.
Description: Cooling to 20° C. in 2 hours prompts another 60% of the material to crystallize. Four volumes of heptane are subsequently added to lower the supernatant concentration to approximately 5 mg/mL in preparation for batch filtration.
A curve showing solubility values at different time points in the crystallization process is represented in FIG. 16. […] One volume of water is subsequently added to lower the supernatant concentration to approximately 5 mg/mL in preparation for a rapid batch filtration. Three water washings (3×10 volumes) were conducted to minimize the presence of residual acetic acid in the isolated material.

[2] = Equilibrium solubility measurements for DHO in various solvents; details: thermodynamic from solid, 20° C.
Description: Equilibrium solubility measurements were gathered for DHO in various solvents. It was observed that all values obtained were above 20 mg/mL at 20° C. (including heptane) except for water (<0.1 mg/mL), which was thus selected as an anti-solvent. […] Using this protocol, crystalline DHO was isolated in 88% yield from DLAC in a >98 LC area % (Scheme 9).

[3] = Particle size distribution pre and post dry-milling
[4] = Solubility in acetonitrile/water (9/1 volume ratio); details: organic solvent or mixture, 10° C.
[5] = milled (Pallman Universal Mill)

Supernatant concentration ([1]; isopropyl acetate (4 volumes) / heptane (4 volumes)): approximately 5 mg/mL
Compound: CC(C)[C@@H](CS(=O)(=O)C(C)C)N1C(=O)[C@@](C)(CC(=O)O)CC(c2cccc(Cl)c2)C1c1ccc(Cl)cc1 (stereo partly drawn) [Compound 232-DAB]

solubility thermodynamic ([2]; organic solvent or mixture, various solvents (including heptane) except water): > 20 mg/mL | solubility thermodynamic ([2]; water): < 0.1 mg/mL
Compound: C=CC[C@@](C)(C[C@H](c1cccc(Cl)c1)[C@@H](O)c1ccc(Cl)cc1)C1=N[C@@H](C(C)C)CO1 [DHO, (1R,2R,4S)-2-(3-chlorophenyl)-1-(4-chlorophenyl)-4-((S)-4-isopropyl-4,5-dihydrooxazol-2-yl)-4-methylhept-6-en-1-ol]

Supernatant concentration ([1]; acetic acid (6.6 volumes) / water (4.4 + 1 volumes)): approximately 5 mg/mL | d10 [3, 5]: 3.2 μm | d50 [3, 5]: 19.1 μm | d90 [3, 5]: 43.7 μm | d10 ([3]; unmilled): 14.6 μm | d50 ([3]; unmilled): 42.5 μm | d90 ([3]; unmilled): 102 μm
Compound: CC(C)[C@@H](CS(=O)(=O)C(C)C)N1C(=O)[C@@](C)(CC(=O)O)C[C@H](c2cccc(Cl)c2)[C@H]1c1ccc(Cl)cc1 [Compound A, 2-((3R,5R,6S)-5-(3-chlorophenyl)-6-(4-chlorophenyl)-1-((S)-1-(isopropylsulfonyl)-3-methylbutan-2-yl)-3-methyl-2-oxopiperidin-3-yl)acetic acid]

solubility [4]: 25 mg/mL
Compound: C=CC[C@@]1(C)C[C@H](c2cccc(Cl)c2)[C@@H](c2ccc(Cl)cc2)N([C@H](CS(=O)(=O)C(C)C)C(C)C)C1=O [SUL, (3S,5R,6S)-3-allyl-5-(3-chlorophenyl)-6-(4-chlorophenyl)-1-((S)-1-(isopropylsulfonyl)-3-methylbutan-2-yl)-3-methylpiperidin-2-one]

solubility [4]: 21 mg/mL
Compound: CC(C)[C@@H](CS(=O)(=O)C(C)C)N1C(=O)[C@@](C)(CC=O)C[C@H](c2cccc(Cl)c2)C1c1ccc(Cl)cc1 (stereo partly drawn) [ALD]
